Among the data in PubChem BioAssay (NCI) are TGI and GI50 values, retold here.

Structures are written as SMILES.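 In this assay, cells in 96-well plates receive the compound at five concentrations for 48 hours. Endpoints are linearly interpolated between the surrounding concentrations. GI50 = concentration required for 50% inhibition of growth. TGI marks complete inhibition of growth.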

Among the test systems are CAKI-1 renal; COLO 205 colon; EKVX NSCLC; MOLT-4 leukemia; NCI-H226 lung; NCI-H460 lung; RPMI-8226 leukemia; SF-268 CNS; SK-MEL-28 melanoma; UO-31 renal.
Common to all, as to assay: NCI tumour cell line growth inhibition, 48 h

Turning to `CC(C(=O)n1nnc2ccccc21)N(c1ccccc1)c1ccccc1` (centres undefined), the TGI with CAKI-1 renal, in the assay on COLO 205 colon, with EKVX NSCLC, with MOLT-4 leukemia, with NCI-H226 lung and with NCI-H460 lung was greater than 100 µM each time. The TGI in the assay on RPMI-8226 leukemia, in the assay with SF-268 CNS, with SK-MEL-28 melanoma and in the assay on UO-31 renal was greater than 100 µM each time.

Turning to `OB1OCc2cc(/C=C/c3cccc(C(F)(F)F)c3)ccc21`, the GI50 in the assay with CAKI-1 renal is 0.349 µM; with COLO 205 colon, 2.31 µM; in the assay with EKVX NSCLC, 3.65 µM; in the assay with MOLT-4 leukemia, 0.454 µM; with NCI-H226 lung it was 2.52 µM; with NCI-H460 lung, 0.48 µM. For the same molecule, the GI50 is 2.38 µM in the assay with RPMI-8226 leukemia, 0.564 µM in the assay on SF-268 CNS, 18.8 µM with SK-MEL-28 melanoma and 0.551 µM in the assay on UO-31 renal. Moreover, the TGI in the assay on CAKI-1 renal was 10.2 µM; in the assay on COLO 205 colon, greater than 100 µM; in the assay with EKVX NSCLC, greater than 100 µM; in the assay with MOLT-4 leukemia, 12.9 µM; in the assay with NCI-H226 lung it was 56.4 µM; in the assay on NCI-H460 lung, 22.8 µM. For the same molecule, the TGI is greater than 100 µM in the assay on RPMI-8226 leukemia, 48.1 µM in the assay with SF-268 CNS, greater than 100 µM with SK-MEL-28 melanoma and 20.3 µM in the assay with UO-31 renal.

Regarding `Cc1cc(N(CCC#N)CCC#N)ccc1/C=C1N=C(/C=C/c2ccccc2)OC(=O)N\1`, the TGI with CAKI-1 renal, in the assay with COLO 205 colon, in the assay with EKVX NSCLC, in the assay with MOLT-4 leukemia, in the assay with NCI-H226 lung and in the assay on NCI-H460 lung was greater than 100 µM each time. Further, the TGI in the assay with RPMI-8226 leukemia, in the assay with SF-268 CNS, in the assay on SK-MEL-28 melanoma and with UO-31 renal was greater than 100 µM each time.

As for `O=C1C(Cl)=C(Nc2ccccc2)C(=O)c2ccccc21`, the GI50 with CAKI-1 renal is 1.73 µM; in the assay with COLO 205 colon, 1.88 µM; with EKVX NSCLC, 2.21 µM; with MOLT-4 leukemia, 3.34 µM; in the assay with NCI-H226 lung it was 2.18 µM; with NCI-H460 lung it was 27.2 µM. In addition, the GI50 was 2.28 µM in the assay with RPMI-8226 leukemia, 1.69 µM in the assay with SF-268 CNS, 1.97 µM in the assay on SK-MEL-28 melanoma and 1.41 µM in the assay with UO-31 renal. Further, the TGI is 3.13 µM in the assay with CAKI-1 renal; 3.77 µM in the assay on COLO 205 colon; 5.38 µM with EKVX NSCLC; greater than 100 µM with MOLT-4 leukemia; 6.3 µM with NCI-H226 lung; greater than 100 µM in the assay on NCI-H460 lung. For the same molecule, the TGI stood at 6.84 µM in the assay on RPMI-8226 leukemia, 3.27 µM in the assay with SF-268 CNS, 3.53 µM in the assay on SK-MEL-28 melanoma and 2.97 µM with UO-31 renal.

With `Cn1c2ccccc2c2c(=O)c3ccccc3[nH]c21`, the GI50 with CAKI-1 renal is greater than 100 µM; in the assay with COLO 205 colon it was 55.8 µM; in the assay on EKVX NSCLC, 44.1 µM; with MOLT-4 leukemia, greater than 100 µM; with NCI-H226 lung it was 38.8 µM; in the assay with NCI-H460 lung it was 32.4 µM. Besides, the GI50 with RPMI-8226 leukemia was 29.6 µM; in the assay on SF-268 CNS, 25 µM; in the assay on SK-MEL-28 melanoma, greater than 100 µM; in the assay on UO-31 renal it was 58.2 µM. Moreover, the TGI in the assay on CAKI-1 renal, in the assay on COLO 205 colon, with EKVX NSCLC, with MOLT-4 leukemia, in the assay on NCI-H226 lung and with NCI-H460 lung was greater than 100 µM throughout. Also, the TGI with RPMI-8226 leukemia is 91.7 µM; with SF-268 CNS, greater than 100 µM; in the assay with SK-MEL-28 melanoma, greater than 100 µM; in the assay on UO-31 renal, greater than 100 µM.

Regarding `CN(C)Cc1c[nH]c2c(NCCN)c3c(c(NCCN)c12)C(=O)c1ccccc1C3=O`, the GI50 with CAKI-1 renal is 20.8 µM; with COLO 205 colon, 7.36 µM; with EKVX NSCLC, 2.9 µM; with MOLT-4 leukemia, 1.7 µM; in the assay on NCI-H226 lung, 1.56 µM; in the assay on NCI-H460 lung, 8.04 µM. The GI50 in the assay with RPMI-8226 leukemia is 1.43 µM; in the assay with SF-268 CNS, 3.65 µM; in the assay on SK-MEL-28 melanoma, 8.8 µM; in the assay on UO-31 renal, 8.58 µM. The TGI with CAKI-1 renal was 41.7 µM; with EKVX NSCLC, 9.36 µM; in the assay with MOLT-4 leukemia, greater than 35.7 µM; with NCI-H226 lung, 5.35 µM; in the assay with NCI-H460 lung it was 26.8 µM; in the assay on RPMI-8226 leukemia, 6.52 µM. Also, the TGI was found to be 14.7 µM in the assay on SF-268 CNS, 23.3 µM in the assay with SK-MEL-28 melanoma and 26 µM in the assay on UO-31 renal.

In the case of `NC(=O)c1cccc(Nc2nccc(Nc3cccc(F)c3)n2)c1`, the GI50 was 7.24 µM with CAKI-1 renal; 6.73 µM in the assay on COLO 205 colon; 12.3 µM in the assay on EKVX NSCLC; 13.1 µM with MOLT-4 leukemia; 4.74 µM with NCI-H226 lung; 7 µM in the assay with NCI-H460 lung. The GI50 in the assay on RPMI-8226 leukemia was 11.4 µM; in the assay with SF-268 CNS, 11.7 µM; in the assay with SK-MEL-28 melanoma, 8.71 µM; in the assay on UO-31 renal, 4.49 µM. For the same molecule, the TGI in the assay with CAKI-1 renal was greater than 25 µM; in the assay on COLO 205 colon it was greater than 17.9 µM; in the assay with EKVX NSCLC it was greater than 25 µM; in the assay with MOLT-4 leukemia, greater than 25 µM; in the assay on NCI-H226 lung, greater than 21.7 µM; in the assay on NCI-H460 lung it was greater than 25 µM. Moreover, the TGI in the assay on RPMI-8226 leukemia was greater than 25 µM; in the assay with SF-268 CNS, greater than 25 µM; with SK-MEL-28 melanoma, greater than 25 µM; in the assay with UO-31 renal, 22.3 µM.

For the molecule `C=C1CC2(OC1=O)C(=O)N(CCCN1C(=O)C3(CC(=C)C(=O)O3)c3ccccc31)c1ccccc12` (centres undefined), the GI50 in the assay on CAKI-1 renal is 1.17 µM; with COLO 205 colon, 0.52 µM; in the assay on EKVX NSCLC it was 13.6 µM; with MOLT-4 leukemia, 0.419 µM; in the assay on NCI-H226 lung, 2.01 µM; in the assay on NCI-H460 lung, 3.94 µM. In addition, the GI50 in the assay with RPMI-8226 leukemia was 0.579 µM; in the assay on SF-268 CNS it was 3.32 µM; in the assay on SK-MEL-28 melanoma it was 1.92 µM; with UO-31 renal, 1.53 µM. Further, the TGI in the assay with CAKI-1 renal amounted to 2.39 µM; in the assay on COLO 205 colon, 2.03 µM; in the assay with EKVX NSCLC, 26.7 µM; with MOLT-4 leukemia, 1.93 µM; in the assay with NCI-H226 lung, 6.64 µM; in the assay with NCI-H460 lung, 18.5 µM. For the same molecule, the TGI with RPMI-8226 leukemia was found to be 2.78 µM; in the assay on SF-268 CNS, 12 µM; with SK-MEL-28 melanoma, 3.61 µM; in the assay on UO-31 renal it was 2.97 µM.
